#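 Values below derive from 48-hour exposures of cells grown in 96-well plates, with endpoints linearly interpolated between the two concentrations bracketing the appropriate inhibition level. TGI denotes the concentration required for complete inhibition of growth.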
# Legend:
# Assay in all cases: inhibition of tumour cell growth, NCI panel, 48 h
# NCI-H460 lung = tested on: NCI-H460 lung
# EKVX NSCLC = tested on: EKVX NSCLC
# MCF7 breast = tested on: MCF7 breast
# SNB-19 CNS = tested on: SNB-19 CNS
# SK-MEL-28 melanoma = tested on: SK-MEL-28 melanoma
# UACC-62 melanoma = tested on: UACC-62 melanoma
# SF-539 CNS = tested on: SF-539 CNS
# UO-31 renal = tested on: UO-31 renal
# HOP-92 NSCLC = tested on: HOP-92 NSCLC
# MOLT-4 leukemia = tested on: MOLT-4 leukemia
# SK-MEL-2 melanoma = tested on: SK-MEL-2 melanoma
# TK-10 renal = tested on: TK-10 renal
# SF-268 CNS = tested on: SF-268 CNS
# HCT-116 colon = tested on: HCT-116 colon
# NCI-H522 lung = tested on: NCI-H522 lung
# SW-620 colon = tested on: SW-620 colon
# 786-0 renal = tested on: 786-0 renal
# ACHN renal = tested on: ACHN renal
# SNB-75 CNS = tested on: SNB-75 CNS
# BT-549 breast = tested on: BT-549 breast
# NCI/ADR-RES ovarian = tested on: NCI/ADR-RES ovarian
# HOP-62 NSCLC = tested on: HOP-62 NSCLC
# SF-295 CNS = tested on: SF-295 CNS
# HT29 colon = tested on: HT29 colon
# SK-MEL-5 melanoma = tested on: SK-MEL-5 melanoma
# OVCAR-3 ovarian = tested on: OVCAR-3 ovarian
# CAKI-1 renal = tested on: CAKI-1 renal
# RXF 393 renal = tested on: RXF 393 renal
# K-562 leukemia = tested on: K-562 leukemia
# SK-OV-3 ovarian = tested on: SK-OV-3 ovarian
# UACC-257 melanoma = tested on: UACC-257 melanoma
# NCI-H23 lung = tested on: NCI-H23 lung
# OVCAR-4 ovarian = tested on: OVCAR-4 ovarian
# COLO 205 colon = tested on: COLO 205 colon
# OVCAR-5 ovarian = tested on: OVCAR-5 ovarian
# HS 578T breast = tested on: HS 578T breast
# U251 CNS = tested on: U251 CNS
# PC-3 prostate = tested on: PC-3 prostate
# OVCAR-8 ovarian = tested on: OVCAR-8 ovarian
# SR leukemia = tested on: SR leukemia
# NCI-H226 lung = tested on: NCI-H226 lung
# IGROV1 ovarian = tested on: IGROV1 ovarian
# MALME-3M melanoma = tested on: MALME-3M melanoma
# CCRF-CEM leukemia = tested on: CCRF-CEM leukemia
# MDA-MB-435 = tested on: MDA-MB-435
# M14 melanoma = tested on: M14 melanoma
# MDA-MB-231 breast = tested on: MDA-MB-231 breast
# HCC-2998 colon = tested on: HCC-2998 colon
# HCT-15 colon = tested on: HCT-15 colon
# A549 NSCLC = tested on: A549 NSCLC
# RPMI-8226 leukemia = tested on: RPMI-8226 leukemia
# HL-60(TB) leukemia = tested on: HL-60(TB) leukemia
# KM12 colon = tested on: KM12 colon
# T-47D breast = tested on: T-47D breast
compound,measurement,setting,value
Cc1ccc(N=Nc2c(O)c(C(=O)O)cc3ccccc23)cc1C,TGI,NCI-H460 lung,> 100 µM
same,TGI,EKVX NSCLC,> 100 µM
same,TGI,MCF7 breast,> 100 µM
same,TGI,SNB-19 CNS,> 100 µM
same,TGI,SK-MEL-28 melanoma,> 100 µM
same,TGI,UACC-62 melanoma,> 100 µM
same,TGI,SF-539 CNS,> 100 µM
same,TGI,UO-31 renal,> 100 µM
same,TGI,HOP-92 NSCLC,> 100 µM
same,TGI,MOLT-4 leukemia,> 100 µM
same,TGI,SK-MEL-2 melanoma,> 100 µM
same,TGI,TK-10 renal,> 100 µM
same,TGI,SF-268 CNS,> 100 µM
same,TGI,HCT-116 colon,> 100 µM
same,TGI,NCI-H522 lung,> 100 µM
same,TGI,SW-620 colon,> 100 µM
same,TGI,786-0 renal,> 100 µM
same,TGI,ACHN renal,> 100 µM
same,TGI,SNB-75 CNS,> 100 µM
same,TGI,BT-549 breast,> 100 µM
same,TGI,NCI/ADR-RES ovarian,> 100 µM
same,TGI,HOP-62 NSCLC,> 100 µM
same,TGI,SF-295 CNS,> 100 µM
same,TGI,HT29 colon,> 100 µM
same,TGI,SK-MEL-5 melanoma,> 100 µM
same,TGI,OVCAR-3 ovarian,> 100 µM
same,TGI,CAKI-1 renal,> 100 µM
same,TGI,RXF 393 renal,> 100 µM
same,TGI,K-562 leukemia,> 100 µM
same,TGI,SK-OV-3 ovarian,> 100 µM
same,TGI,UACC-257 melanoma,> 100 µM
same,TGI,NCI-H23 lung,> 100 µM
same,TGI,OVCAR-4 ovarian,> 100 µM
same,TGI,COLO 205 colon,> 100 µM
same,TGI,OVCAR-5 ovarian,> 100 µM
same,TGI,HS 578T breast,> 100 µM
same,TGI,U251 CNS,> 100 µM
same,TGI,PC-3 prostate,> 100 µM
same,TGI,OVCAR-8 ovarian,> 100 µM
same,TGI,SR leukemia,> 100 µM
same,TGI,NCI-H226 lung,> 100 µM
same,TGI,IGROV1 ovarian,> 100 µM
same,TGI,MALME-3M melanoma,> 100 µM
same,TGI,CCRF-CEM leukemia,> 100 µM
same,TGI,MDA-MB-435,> 100 µM
same,TGI,M14 melanoma,> 100 µM
same,TGI,MDA-MB-231 breast,> 100 µM
same,TGI,HCC-2998 colon,> 100 µM
same,TGI,HCT-15 colon,> 100 µM
same,TGI,A549 NSCLC,> 100 µM
same,TGI,RPMI-8226 leukemia,> 100 µM
same,TGI,HL-60(TB) leukemia,> 100 µM
same,TGI,KM12 colon,> 100 µM
C=CCNc1nc(C#N)c(N)s1,TGI,NCI-H460 lung,> 10 µM
same,TGI,MCF7 breast,> 10 µM
same,TGI,SK-MEL-28 melanoma,> 10 µM
same,TGI,UACC-62 melanoma,> 10 µM
same,TGI,HOP-92 NSCLC,> 10 µM
same,TGI,MOLT-4 leukemia,> 10 µM
same,TGI,SK-MEL-2 melanoma,> 10 µM
same,TGI,SF-268 CNS,> 10 µM
same,TGI,SW-620 colon,> 10 µM
same,TGI,786-0 renal,> 10 µM
same,TGI,ACHN renal,> 10 µM
same,TGI,SNB-75 CNS,> 10 µM
same,TGI,NCI/ADR-RES ovarian,> 10 µM
same,TGI,HOP-62 NSCLC,> 10 µM
same,TGI,SK-MEL-5 melanoma,> 10 µM
same,TGI,CAKI-1 renal,> 10 µM
same,TGI,RXF 393 renal,> 10 µM
same,TGI,K-562 leukemia,> 10 µM
same,TGI,SK-OV-3 ovarian,> 10 µM
same,TGI,T-47D breast,> 10 µM
same,TGI,NCI-H23 lung,> 10 µM
same,TGI,OVCAR-4 ovarian,> 10 µM
same,TGI,COLO 205 colon,> 10 µM
same,TGI,OVCAR-5 ovarian,> 10 µM
same,TGI,U251 CNS,> 10 µM
same,TGI,SR leukemia,> 10 µM
same,TGI,IGROV1 ovarian,> 10 µM
same,TGI,MALME-3M melanoma,> 10 µM
same,TGI,CCRF-CEM leukemia,> 10 µM
same,TGI,MDA-MB-435,> 10 µM
same,TGI,M14 melanoma,> 10 µM
same,TGI,A549 NSCLC,> 10 µM
same,TGI,RPMI-8226 leukemia,> 10 µM
same,TGI,HL-60(TB) leukemia,> 10 µM

# From PubChem BioAssay (NCI)
